Experimental data reported in ChEMBL document CHEMBL1131954, “Homoisofagomines: chemical-enzymatic synthesis and evaluation as alpha- and beta-glucosidase inhibitors” (Bioorg Med Chem Lett, 1999).

Experiments:
[1] = system: Alpha-glucosidase (Saccharomyces cerevisiae); assay: Inhibitory activity against alpha-glucosidase of yeast at a concentration of 0.1 mM
[2] = system: alpha-glucosidase (Saccharomyces cerevisiae); assay: Inhibitory activity against alpha-glucosidase of yeast; No inhibition

inhibition [1]: < 20% | Ki [2]: Not Active
SMILES: C[C@@H]1NC[C@@H](CO)[C@@H](O)[C@@H]1O
